Measurements as given in ChEMBL document CHEMBL1909046, “DrugMatrix in vitro pharmacology data”.

Tests used:
[1] = molecular target: T1, Alpha-2A adrenergic receptor (Homo sapiens, UniProt P08913); format: cell membranes, Sf9, Membrane; conditions: sf9; also: in other assays of this panel Not Active means under 50% inhibition at 10 µM
T1 sequence (P08913 whole entry): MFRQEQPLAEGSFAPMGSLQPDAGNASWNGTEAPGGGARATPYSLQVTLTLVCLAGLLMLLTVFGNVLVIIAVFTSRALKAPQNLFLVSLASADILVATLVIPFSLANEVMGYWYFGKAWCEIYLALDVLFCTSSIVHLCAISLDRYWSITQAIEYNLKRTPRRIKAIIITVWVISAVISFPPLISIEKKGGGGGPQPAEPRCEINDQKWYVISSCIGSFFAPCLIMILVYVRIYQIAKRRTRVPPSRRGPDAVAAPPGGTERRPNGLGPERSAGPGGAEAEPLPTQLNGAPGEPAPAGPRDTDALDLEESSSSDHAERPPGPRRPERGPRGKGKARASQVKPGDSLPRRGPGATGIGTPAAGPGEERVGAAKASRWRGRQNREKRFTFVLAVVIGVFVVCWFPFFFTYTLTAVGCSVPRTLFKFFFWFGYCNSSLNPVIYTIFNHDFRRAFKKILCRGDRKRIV

[2] = molecular target: 5-hydroxytryptamine receptor 6 (Homo sapiens, UniProt P50406); format: cell membranes, HeLa, Membrane; conditions: hela; also: in other assays of this panel Not Active means under 50% inhibition at 10 µM
[3] = DRUGMATRIX: Sigma2 radioligand binding (ligand: [3H] Ifenprodil); format: cell membranes, Rattus norvegicus, Wistar, Brain, Membrane; conditions: Not Active = under 50% inhibition at 10 µM
[4] = molecular target: Substance-P receptor (Homo sapiens, UniProt P25103); format: cell membranes, CHO, Membrane; conditions: cho; also: in other assays of this panel Not Active means under 50% inhibition at 10 µM
[5] = molecular target: Cannabinoid receptor 1 (Homo sapiens, UniProt P21554); format: cell membranes, Membrane; conditions: chem-1; also: in other assays of this panel Not Active means under 50% inhibition at 10 µM
[6] = molecular target: Carbonic anhydrase 2 (Homo sapiens, UniProt P00918); assay: DRUGMATRIX: Carbonic Anhydrase II enzyme inhibition (substrate: 4-Nitrophenyl acetate (4-NPA)); format: tissue-based, Erythrocyte; conditions: erythrocyte; Not Active = under 50% inhibition at 10 µM
[7] = molecular target: C-C chemokine receptor type 5 (Homo sapiens, UniProt P51681); format: cell membranes, Membrane; conditions: hek293; also: in other assays of this panel Not Active means under 50% inhibition at 10 µM
[8] = molecular target: Sodium-dependent dopamine transporter (Homo sapiens, UniProt Q01959); assay: DRUGMATRIX: Dopamine Transporter radioligand binding (ligand: [125I] RTI-55); format: cell membranes, CHO-K1, Membrane; conditions: cho-k1; Not Active = under 50% inhibition at 10 µM
[9] = DRUGMATRIX: GABAA, Chloride Channel, TBOB radioligand binding (ligand: [3H] TBOB); format: cell membranes, Rattus norvegicus, Wistar, Cerebral cortex, Membrane; conditions: Not Active = under 50% inhibition at 10 µM
[10] = DRUGMATRIX: Imidazoline I2, Central radioligand binding (ligand: [3H] Idazoxan); format: cell membranes, Rattus norvegicus, Wistar, Cerebral cortex, Membrane; conditions: Not Active = under 50% inhibition at 10 µM
[11] = molecular target: T2, Cathepsin G (Homo sapiens, UniProt P08311); format: tissue-based; conditions: neutrophil
T2 sequence (P08311 whole entry): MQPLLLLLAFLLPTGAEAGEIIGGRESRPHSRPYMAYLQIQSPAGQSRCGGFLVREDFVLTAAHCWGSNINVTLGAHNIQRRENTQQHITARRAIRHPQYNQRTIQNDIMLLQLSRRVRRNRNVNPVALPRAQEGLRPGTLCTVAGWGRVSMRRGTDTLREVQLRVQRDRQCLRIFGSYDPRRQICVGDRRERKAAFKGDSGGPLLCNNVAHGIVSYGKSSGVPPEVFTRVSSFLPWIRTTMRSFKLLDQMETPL

[12] = molecular target: Epidermal growth factor receptor (Homo sapiens, UniProt P00533); assay: DRUGMATRIX: Protein Tyrosine Kinase, EGF Receptor enzyme inhibition (substrate: Poly(Glu:Tyr)); format: cell-based, Insect cells; conditions: insect cells; Not Active = under 50% inhibition at 10 µM
[13] = DRUGMATRIX: Purinergic P2X radioligand binding (ligand: [3H] alpha, beta-Methylene-ATP); format: cell membranes, Oryctolagus cuniculus, New Zealand albino, Urinary bladder, Membrane; conditions: Not Active = under 50% inhibition at 10 µM
[14] = molecular target: T3, Adenosine receptor A1 (Homo sapiens, UniProt P30542); format: cell membranes, CHO, Membrane; conditions: cho
T3 sequence (P30542 whole entry): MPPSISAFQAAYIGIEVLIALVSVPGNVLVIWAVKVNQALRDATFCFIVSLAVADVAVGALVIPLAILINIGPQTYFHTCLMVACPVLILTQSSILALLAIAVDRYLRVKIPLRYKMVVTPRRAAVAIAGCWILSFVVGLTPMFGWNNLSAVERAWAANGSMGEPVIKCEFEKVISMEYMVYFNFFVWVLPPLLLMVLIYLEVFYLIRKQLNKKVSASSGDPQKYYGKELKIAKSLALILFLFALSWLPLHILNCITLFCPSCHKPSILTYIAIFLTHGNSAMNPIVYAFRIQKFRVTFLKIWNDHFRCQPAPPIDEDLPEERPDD

[15] = molecular target: T4, Glucocorticoid receptor (Homo sapiens, UniProt P04150); conditions: hela s3; also: in other assays of this panel Not Active means under 50% inhibition at 10 µM
T4 sequence (P04150 whole entry): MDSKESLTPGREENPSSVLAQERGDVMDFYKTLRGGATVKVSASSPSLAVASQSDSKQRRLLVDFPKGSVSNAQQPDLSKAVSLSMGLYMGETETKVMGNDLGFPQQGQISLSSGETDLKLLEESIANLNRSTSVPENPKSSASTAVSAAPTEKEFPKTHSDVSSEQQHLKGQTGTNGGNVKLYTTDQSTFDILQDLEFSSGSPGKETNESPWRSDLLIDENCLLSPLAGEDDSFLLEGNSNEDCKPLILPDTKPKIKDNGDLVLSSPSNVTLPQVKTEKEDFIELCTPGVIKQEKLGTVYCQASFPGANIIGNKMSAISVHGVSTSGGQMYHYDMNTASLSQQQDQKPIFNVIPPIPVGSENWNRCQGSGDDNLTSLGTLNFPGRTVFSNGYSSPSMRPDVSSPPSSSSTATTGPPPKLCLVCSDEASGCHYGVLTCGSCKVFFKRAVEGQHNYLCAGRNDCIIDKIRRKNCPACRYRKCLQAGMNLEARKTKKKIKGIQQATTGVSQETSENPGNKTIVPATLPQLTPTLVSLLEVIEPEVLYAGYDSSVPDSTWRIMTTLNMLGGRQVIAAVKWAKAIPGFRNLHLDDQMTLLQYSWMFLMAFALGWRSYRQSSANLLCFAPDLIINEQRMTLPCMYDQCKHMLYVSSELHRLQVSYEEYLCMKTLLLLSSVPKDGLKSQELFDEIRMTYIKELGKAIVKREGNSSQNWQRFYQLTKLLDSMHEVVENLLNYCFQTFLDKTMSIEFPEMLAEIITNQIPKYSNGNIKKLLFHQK

Chain of Sodium-dependent dopamine transporter (Q01959 whole entry): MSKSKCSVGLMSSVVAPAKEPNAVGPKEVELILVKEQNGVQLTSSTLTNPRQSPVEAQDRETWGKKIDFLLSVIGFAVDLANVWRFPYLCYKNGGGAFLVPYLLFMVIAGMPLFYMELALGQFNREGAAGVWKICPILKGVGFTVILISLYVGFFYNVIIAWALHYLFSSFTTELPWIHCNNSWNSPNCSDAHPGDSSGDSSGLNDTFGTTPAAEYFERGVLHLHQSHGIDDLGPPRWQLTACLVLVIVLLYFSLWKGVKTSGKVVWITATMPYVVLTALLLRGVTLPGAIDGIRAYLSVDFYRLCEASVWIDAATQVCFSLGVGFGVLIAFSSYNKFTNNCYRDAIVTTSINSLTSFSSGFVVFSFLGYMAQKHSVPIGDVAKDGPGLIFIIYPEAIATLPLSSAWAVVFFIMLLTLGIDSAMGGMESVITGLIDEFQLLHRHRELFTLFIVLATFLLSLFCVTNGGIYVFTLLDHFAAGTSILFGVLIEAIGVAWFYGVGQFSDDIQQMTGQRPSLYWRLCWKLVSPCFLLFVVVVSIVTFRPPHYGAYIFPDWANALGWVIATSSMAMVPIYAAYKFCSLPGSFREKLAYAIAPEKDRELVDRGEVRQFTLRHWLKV
Chain of Substance-P receptor (P25103 whole entry): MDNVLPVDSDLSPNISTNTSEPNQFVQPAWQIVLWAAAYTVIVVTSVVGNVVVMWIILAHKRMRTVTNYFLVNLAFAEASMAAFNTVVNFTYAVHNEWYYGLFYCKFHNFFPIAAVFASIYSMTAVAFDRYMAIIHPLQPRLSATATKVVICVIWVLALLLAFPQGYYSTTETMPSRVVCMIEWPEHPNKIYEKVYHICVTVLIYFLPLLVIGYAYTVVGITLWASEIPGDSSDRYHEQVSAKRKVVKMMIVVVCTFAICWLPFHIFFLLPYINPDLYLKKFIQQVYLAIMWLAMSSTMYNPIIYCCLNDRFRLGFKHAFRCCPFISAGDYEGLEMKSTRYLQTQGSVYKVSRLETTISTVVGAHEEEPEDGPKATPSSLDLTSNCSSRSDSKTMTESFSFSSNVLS
Chain of C-C chemokine receptor type 5 (P51681 whole entry): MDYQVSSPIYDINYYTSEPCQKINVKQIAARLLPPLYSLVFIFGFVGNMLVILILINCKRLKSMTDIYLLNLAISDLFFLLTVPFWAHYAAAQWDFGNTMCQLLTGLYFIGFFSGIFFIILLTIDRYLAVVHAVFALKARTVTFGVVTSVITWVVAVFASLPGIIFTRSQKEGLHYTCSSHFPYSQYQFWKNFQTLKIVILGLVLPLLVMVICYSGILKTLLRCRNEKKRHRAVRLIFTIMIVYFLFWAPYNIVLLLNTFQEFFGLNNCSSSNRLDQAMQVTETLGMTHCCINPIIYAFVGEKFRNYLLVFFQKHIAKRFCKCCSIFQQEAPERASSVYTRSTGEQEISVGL
Chain of Epidermal growth factor receptor (P00533 whole entry): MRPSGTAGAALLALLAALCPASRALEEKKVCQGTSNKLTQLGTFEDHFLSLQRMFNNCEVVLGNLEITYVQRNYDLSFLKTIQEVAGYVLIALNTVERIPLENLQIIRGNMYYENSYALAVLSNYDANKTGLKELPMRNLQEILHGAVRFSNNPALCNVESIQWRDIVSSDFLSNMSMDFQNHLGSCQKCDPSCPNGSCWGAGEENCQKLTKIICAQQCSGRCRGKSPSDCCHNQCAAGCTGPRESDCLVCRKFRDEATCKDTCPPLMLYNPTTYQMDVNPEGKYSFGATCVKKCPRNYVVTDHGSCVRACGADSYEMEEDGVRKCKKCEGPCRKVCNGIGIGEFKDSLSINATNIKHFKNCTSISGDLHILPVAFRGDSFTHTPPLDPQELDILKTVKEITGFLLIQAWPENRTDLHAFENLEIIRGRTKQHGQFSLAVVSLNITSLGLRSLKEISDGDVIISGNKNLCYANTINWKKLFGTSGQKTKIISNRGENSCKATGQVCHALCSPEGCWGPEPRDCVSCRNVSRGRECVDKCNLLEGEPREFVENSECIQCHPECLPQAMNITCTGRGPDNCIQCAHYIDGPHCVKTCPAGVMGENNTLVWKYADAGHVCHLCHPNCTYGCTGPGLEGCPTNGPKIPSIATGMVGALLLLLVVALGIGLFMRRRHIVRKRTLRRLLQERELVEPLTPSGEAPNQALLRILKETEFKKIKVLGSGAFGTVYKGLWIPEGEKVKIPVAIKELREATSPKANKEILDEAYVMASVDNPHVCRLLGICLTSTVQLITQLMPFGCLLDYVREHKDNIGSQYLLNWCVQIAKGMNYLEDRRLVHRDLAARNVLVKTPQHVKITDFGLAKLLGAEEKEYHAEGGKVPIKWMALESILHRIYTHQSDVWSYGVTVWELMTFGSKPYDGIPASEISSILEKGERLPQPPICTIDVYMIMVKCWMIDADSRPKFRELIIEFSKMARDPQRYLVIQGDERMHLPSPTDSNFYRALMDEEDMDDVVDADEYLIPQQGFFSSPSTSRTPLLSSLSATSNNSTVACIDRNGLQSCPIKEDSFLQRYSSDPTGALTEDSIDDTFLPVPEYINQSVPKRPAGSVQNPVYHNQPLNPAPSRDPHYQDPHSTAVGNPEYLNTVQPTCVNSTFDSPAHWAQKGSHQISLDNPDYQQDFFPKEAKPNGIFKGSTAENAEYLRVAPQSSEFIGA
Chain of 5-hydroxytryptamine receptor 6 (P50406 whole entry): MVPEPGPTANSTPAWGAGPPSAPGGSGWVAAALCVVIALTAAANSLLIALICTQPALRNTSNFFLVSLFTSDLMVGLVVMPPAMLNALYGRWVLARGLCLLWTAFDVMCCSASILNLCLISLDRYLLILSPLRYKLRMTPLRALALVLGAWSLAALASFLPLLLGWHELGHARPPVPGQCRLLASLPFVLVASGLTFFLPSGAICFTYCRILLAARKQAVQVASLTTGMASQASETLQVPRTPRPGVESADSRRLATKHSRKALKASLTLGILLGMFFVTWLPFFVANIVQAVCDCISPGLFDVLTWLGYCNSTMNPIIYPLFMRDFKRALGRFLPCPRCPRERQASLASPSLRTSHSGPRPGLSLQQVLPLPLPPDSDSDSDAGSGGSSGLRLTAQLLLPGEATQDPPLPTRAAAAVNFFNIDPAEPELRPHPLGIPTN
Chain of Cannabinoid receptor 1 (P21554 whole entry): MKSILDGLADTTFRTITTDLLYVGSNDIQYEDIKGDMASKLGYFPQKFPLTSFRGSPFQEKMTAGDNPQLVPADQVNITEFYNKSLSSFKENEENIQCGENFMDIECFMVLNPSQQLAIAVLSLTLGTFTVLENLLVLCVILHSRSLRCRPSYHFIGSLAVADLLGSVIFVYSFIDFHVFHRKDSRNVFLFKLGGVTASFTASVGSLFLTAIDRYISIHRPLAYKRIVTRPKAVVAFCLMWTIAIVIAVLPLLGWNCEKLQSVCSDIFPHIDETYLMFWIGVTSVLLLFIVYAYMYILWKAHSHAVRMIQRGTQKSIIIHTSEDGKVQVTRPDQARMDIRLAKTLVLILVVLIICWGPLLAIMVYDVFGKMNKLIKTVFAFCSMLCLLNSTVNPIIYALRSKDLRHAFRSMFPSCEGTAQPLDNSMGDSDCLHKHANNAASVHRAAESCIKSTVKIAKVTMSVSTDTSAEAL

CC[C@@]1(O)C(=O)OCc2c1cc1n(c2=O)Cc2cc3ccccc3nc2-1 [CAMPTOTHECIN]
Not Active: IC50 [1] | IC50 [2] | IC50 [3] | Ki [3] | IC50 [4] | IC50 [5] | IC50 [6] | IC50 [7] | IC50 [8] | IC50 [9] | Ki [9] | IC50 [10] | Ki [10] | IC50 [11] | IC50 [12] | IC50 [13] | Ki [13] | IC50 [14] | IC50 [15]

COCc1c(C(C)C)nc(C(C)C)c(/C=C/[C@@H](O)C[C@@H](O)CC(=O)O)c1-c1ccc(F)cc1 [CERIVASTATIN]
Not Active: IC50 [1] | IC50 [2] | IC50 [3] | Ki [3] | IC50 [4] | IC50 [5] | IC50 [6] | IC50 [7] | IC50 [8] | IC50 [9] | Ki [9] | IC50 [10] | Ki [10] | IC50 [11] | IC50 [12] | IC50 [13] | Ki [13] | IC50 [14] | IC50 [15]

O=C1CCc2cc(OCCCCc3nnnn3C3CCCCC3)ccc2N1 [CILOSTAZOL]
Not Active: IC50 [1] | IC50 [2] | IC50 [3] | Ki [3] | IC50 [4] | IC50 [5] | IC50 [6] | IC50 [7] | IC50 [8] | IC50 [9] | Ki [9] | IC50 [10] | Ki [10] | IC50 [11] | IC50 [12] | IC50 [13] | Ki [13] | IC50 [14] | IC50 [15]

O=C(O)c1cn(C2CC2)c2cc(N3CCNCC3)c(F)cc2c1=O [CIPROFLOXACIN]
Not Active: IC50 [1] | IC50 [2] | IC50 [3] | Ki [3] | IC50 [4] | IC50 [5] | IC50 [6] | IC50 [7] | IC50 [8] | IC50 [9] | Ki [9] | IC50 [10] | Ki [10] | IC50 [11] | IC50 [12] | IC50 [13] | Ki [13] | IC50 [14] | IC50 [15]

CN(C)CCCC1(c2ccc(F)cc2)OCc2cc(C#N)ccc21 (configuration not stated) [CITALOPRAM]
Not Active: IC50 [1] | IC50 [2] | IC50 [3] | Ki [3] | IC50 [4] | IC50 [5] | IC50 [6] | IC50 [7] | IC50 [8] | IC50 [9] | Ki [9] | IC50 [10] | Ki [10] | IC50 [11] | IC50 [12] | IC50 [13] | Ki [13] | IC50 [14] | IC50 [15]

COC(=O)[C@H](c1ccccc1Cl)N1CCc2sccc2C1 [CLOPIDOGREL]
Not Active: IC50 [1] | IC50 [2] | IC50 [3] | Ki [3] | IC50 [4] | IC50 [5] | IC50 [6] | IC50 [7] | IC50 [8] | IC50 [9] | Ki [9] | IC50 [10] | Ki [10] | IC50 [11] | IC50 [12] | IC50 [13] | Ki [13] | IC50 [14] | IC50 [15]

Cc1ccccc1N1CCN(CCc2nnc3n2CCCC3)CC1 [DAPIPRAZOLE]
Not Active: IC50 [1] | IC50 [2] | IC50 [3] | Ki [3] | IC50 [4] | IC50 [5] | IC50 [6] | IC50 [7] | IC50 [8] | IC50 [9] | Ki [9] | IC50 [10] | Ki [10] | IC50 [11] | IC50 [12] | IC50 [13] | Ki [13] | IC50 [14] | IC50 [15]

CC1=Nc2ccc(Cl)cc2S(=O)(=O)N1 [DIAZOXIDE]
Not Active: IC50 [1] | IC50 [2] | IC50 [3] | Ki [3] | IC50 [4] | IC50 [5] | IC50 [6] | IC50 [7] | IC50 [8] | IC50 [9] | Ki [9] | IC50 [10] | Ki [10] | IC50 [11] | IC50 [12] | IC50 [13] | Ki [13] | IC50 [14] | IC50 [15]
